Assay results: patent US9610234B2, “Combinations of alkylamidothiazoles and preservatives” (Beiersdorf AG, priority 2013, dated 2017)

Molecular target: T1, human tyrosinase (Homo sapiens, UniProt P14679)
T1 sequence (P14679 19-529): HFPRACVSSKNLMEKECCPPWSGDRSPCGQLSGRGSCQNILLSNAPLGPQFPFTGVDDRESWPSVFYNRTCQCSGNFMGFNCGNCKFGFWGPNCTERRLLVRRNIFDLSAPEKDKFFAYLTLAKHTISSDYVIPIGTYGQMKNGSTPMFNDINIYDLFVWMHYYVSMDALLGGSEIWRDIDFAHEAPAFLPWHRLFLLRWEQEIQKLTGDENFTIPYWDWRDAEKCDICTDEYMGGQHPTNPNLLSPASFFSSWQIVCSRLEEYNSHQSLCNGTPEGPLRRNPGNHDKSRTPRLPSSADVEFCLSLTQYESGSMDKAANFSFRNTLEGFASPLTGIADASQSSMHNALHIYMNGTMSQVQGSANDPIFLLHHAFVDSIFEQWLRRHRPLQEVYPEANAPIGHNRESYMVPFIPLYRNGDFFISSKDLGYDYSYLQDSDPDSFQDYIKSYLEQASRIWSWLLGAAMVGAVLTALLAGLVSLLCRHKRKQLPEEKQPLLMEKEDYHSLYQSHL
Assay: Enzyme test: conversion of L-DOPA to L-dopaquinone by human tyrosinase (MBTH, absorption at 490 nm)
Assay type: biochemical
Conditions: tyrosinase activity
Procedure: Method Description of the Effectiveness Investigations:
In this literature-known method (Winder, A. J. and Harris, H., New assays for the tyrosine hydroxylase and dopa oxidase activities of tyrosinase. Eur. J. Biochem. (1991), 198, 317-26), the reaction product L-dopaquinone is reacted with MBTH (3-methyl-2-benzothiazoline hydrazone) to give a pink-colored substance, the increase of which is measured over time by absorption at 490 nm. […] It can be concluded from this that the substances according to the invention are extremely effective pigmentation-inhibiting substances.

Row | SMILES | Inhibition (% of the control) (concentration 200 μg/mL) | Inhibition (% of the control) (concentration 0.4 μg/mL)
1 | O=C([O-])c1ccccc1.[Na+] [Sodium benzoate] | 43.6 % of the control | –
2 | CC(C)C(=O)Nc1nc(-c2ccc(O)cc2O)cs1 [N-(4-(2,4-dihydroxyphenyl)thiazol-2-yl)isobutyramide] | – | 38.2 % of the control
3 | C/C=C/C=C/C(=O)[O-].[K+] [Potassium sorbate] | 42.0 % of the control | –
